Data reported in publication PMC11310889, “Ribosomal translation of fluorinated non-canonical amino acids for de novo biologically active fluorinated macrocyclic peptides” (Chemical Science, 2024).

Key:
E. coli W3110 [1] = assay: Propidium iodide (PI) assay of membrane permeability; assay type: cell-based, Escherichia coli; conditions: E. coli W3110 logarithmic-phase, 15 min treatment with 5 μM peptide, PI 25 μg/mL 15 min (Fig. 5A)
Method: Propidium Iodide (PI) assay
Thaw the previously preserved E. coli W3110 cells from the -80 °C freezer. Scrape a small amount and inoculate it into 1 mL of LB liquid medium. Culture overnight in a 37°C shaker. Next day, inoculate the strain into fresh LB liquid medium at a 1:100 ratio and incubate at 37 °C until the OD600 reaches approximately 0.47 to 0.53. Take 100 μL of the E. coli W3110 cells and centrifuge for 2 min at 13,000 rpm. Discard the supernatant. For the untreated group, resuspend the cells in 100 μL of PBS. For the peptide treatment group, resuspend the cells in 99 μL of ddH2O and add 1 […]
μL of 0.5 mM of the different peptides. Mix thoroughly and let react for 15 min. After the treatment, take 80 μL of each sample and incubate with PI at a final concentration of 25 μg/mL for 15 min.
After incubation, wash the samples with the same amount of PBS, centrifuge, and resuspend at a 10-fold concentration. Observe the images using a Nikon Eclipse Ci-L Plus microscope. […]
Incubate overnight in a 37°C shaker. […]
Centrifuge again at
6100g for 10 min, discard the supernatant, and add 500 μL of ddH2O containing 2.5% glutaraldehyde. Resuspend and fix the cells overnight at 4°C. Centrifuge at 6100g for 10 min, remove the supernatant, and wash twice with ddH2O, letting it stand for 15 min each time, followed by centrifugation at 6100g for 10 min. Discard the supernatant. Dehydrate the sample with ethanol at concentration gradients of 30%, 60%, and 90%, without resuspension, centrifuging at 6100g for […]

E. coli W3110 [2] = assay: Scanning electron microscopy of cell morphology; assay type: cell-based, Escherichia coli; conditions: E. coli W3110 logarithmic-phase, 4 h treatment at 2 μM and 5 μM (Fig. 5B, S11)
Method: Thaw the previously preserved E. coli W3110 cells from the -80 °C freezer. […]
Scanning electron microscopy
Thaw the previously preserved E. coli W3110 cells from the -80°C freezer. Scrape a small amount and inoculate it into 1 mL of LB liquid medium. Incubate overnight in a 37°C shaker. The next day, inoculate the strain into fresh LB liquid medium at a 1:100 ratio and incubate at 37°C until the OD600 reaches approximately 0.47 to 0.53. Take 500 μL of E. coli W3110 cells, centrifuge for 10 min at 4000 rpm, and discard the supernatant. Resuspend the cells in 500 μL of PBS, then centrifuge again at 4000 rpm for 10 min and discard the supernatant. Dissolve various macrocyclic peptides in DMSO and dilute to the required concentration. Resuspend the untreated group in 500 μL of PBS.
For the peptide treatment group, resuspend in 495 μL of ddH2O, add 5 μL of 0.2 mM or 0.5 mM peptides, mix well, and let react for 4 h.
After the treament, spot 4 μL of the sample on plates. Perform the first ten-fold dilution and mix, then continue with the second to fifth ten-fold dilutions. Incubate the plates inverted overnight in a 37°C incubator. Scan and count the colonies. For the remaining 492 μL, centrifuge at 6100g for 10 min, discard the supernatant, add 500 μL of ddH2O, and let it stand for 15 min. Centrifuge again at 6100g for 10 min, discard the supernatant, and add 500 μL of ddH2O containing 2.5% glutaraldehyde. Resuspend and fix the cells overnight at 4°C. Centrifuge at 6100g for 10 min, remove the supernatant, and wash twice with ddH2O, letting it stand for 15 min each time, followed by centrifugation at 6100g for 10 min. Discard the supernatant. Dehydrate the sample with ethanol at concentration gradients of 30%, 60%, and 90%, without resuspension, centrifuging at 6100g for […]
10 min and discarding the supernatant after each step. Finally, use 100% ethanol, rest for 15 min, centrifuge at 6100g for 10 min, discard the supernatant, and repeat with 100% ethanol, leaving about 10 μL. Then the critical point was dried and sprayed with gold, and the images were observed by […]
Prediction of binding sites between peptides and the BAM complex
Firstly, the fpocket algorithm was used, a rapid method for pocket prediction based on the three-dimensional structure of BAM complex (PDB ID: 5AYW). This method establishes a grid surrounding the protein, positioning alpha spheres on grid points devoid of spatial conflicts with protein atoms, subsequently utilizing a clustering algorithm to ascertain whether these regions constitute potential binding pockets. Alpha spheres were designated with radii ranging from 3.4Å to 6.2Å, with a prerequisite of at least 15 alpha spheres for a region to be considered a pocket. […]
PepNN evaluated each amino acid for its potentiality as a peptide binding site. […]

Gram-negative bacteria = conditions: cited from earlier work
From the text: Furthermore, conjugating the R9 peptide to antimicrobial peptides enhances antibacterial activity, particularly increasing effectiveness against Gram-negative bacteria.[49–51] ...

nona-arginine [R9, reference compound]
PI red fluorescence (cell membrane permeability) (E. coli W3110 [1]): weak red fluorescence | morphological changes by scanning electron microscopy (E. coli W3110 [2]): slight shrinkage and partial rupture | anti-Gram-negative bacterial activity (Gram-negative bacteria): low anti-Gram-negative bacterial activity
